Patent US11773066B2, “Indazolylcyanoethylamino compound, compositions of same, method of making, and methods of using thereof” (BOEHRINGER INGELHEIM ANIMAL HEALTH USA INC., priority 2018, dated 2023)
Values after ≈ are worked out from the molar mass of the structure shown.

Assays:
[1] = test system: Haemonchus contortus larvae; assay: In vitro Haemonchus contortus larval motility (L1 to L3 development) assay, MIC90; type: cell-based; details: 96 h, L1 larvae in nutrient medium, 27° C., 97% relative humidity, 4 days, motility of L3 vs DMSO control, read-out: MIC90 (minimum concentration inhibiting motility of the larvae by 90%)
Method: The following procedure was used for the study: Twenty L1 Haemonchus contortus larvae were added to wells of a microtitre plate containing a nutrient medium and the test compound in DMSO. The microtitre plate was held at 27° C. and 97% Relative humidity for a 4 day period. Under these conditions the added larvae develop to the L3 stage. The efficacy of a compound is determined based on the motility of the resulting L3 larvae and compared to the motility of control wells treated with DMSO only.

Ostertagia ostertagi = assay: In vivo efficacy in experimentally infected calves, worm count reduction; details: oral, single treatment Day 0, necropsy Day 16, vs untreated control, Compound I 2 mg/kg, eprinomectin 0.075 mg/kg, ivermectin 0.150 mg/kg
From the text: (§1) The efficacy of Compound I against parasitic gastrointestinal nematodes in cattle when administered orally as an oral solution was studied. Thirty male castrate dairy calves of approximately 8 to 12 weeks of age were experimentally infected with parasitic nematodes. The calves were inoculated with Haemonchus […] Ostertagia ostertagi on Day -33 and with Cooperia punctata and Cooperia oncophora on Day -21. Calves were allocated to one of the six treatment groups. Calves in Treatment Group 1 were not treated. Calves in Treatment Groups 2-6 were treated on Day 0 as outlined in the Table 2 below with a formulation containing 5% (w/v) of Compound I in a carrier comprising 50% (v/v) PEG 400 with the remainder (QS to 130 mL0 PEG 300. [table] All calves were euthanized on Day 16 and the abomasum and small intestine were recovered from each calf and processed for parasite recovery. All five calves in the untreated control group harbored adequate infections of […]. ostertagi, C. punctate and C. oncophora. The efficacy of each treatment group relative to the control group is shown in Table 3 below: […]

Haemonchus placei = assay: as above; details: oral, single treatment Day 0, necropsy Day 16, vs untreated control, Compound I 2 mg/kg, eprinomectin 0.075 mg/kg, ivermectin 0.150 mg/kg
From the text: as §1

Cooperia punctata = assay: as above; details: oral, single treatment Day 0, necropsy Day 16, vs untreated control, Compound I 2 mg/kg, eprinomectin 0.075 mg/kg, ivermectin 0.150 mg/kg
From the text: as §1

Cooperia oncophora = assay: as above; details: oral; for efficacy against C. oncophora males in words: Compound I compared with eprinomectin (Group 3) or ivermectin (Group 4); for % Reduction in Worm Counts, C. oncophora Males: single treatment Day 0, necropsy Day 16, vs untreated control, Compound I 2 mg/kg, eprinomectin 0.075 mg/kg, ivermectin 0.150 mg/kg
From the text: as §1

Cooperia spp. = assay: as above; details: oral; for % Reduction in Worm Counts, Cooperia spp. Females: single treatment Day 0, necropsy Day 16, vs untreated control, Compound I 2 mg/kg, eprinomectin 0.075 mg/kg, ivermectin 0.150 mg/kg
From the text: as §1

## CC(C#N)(Cn1cc2c(C(F)(F)F)cc(Cl)c(Cl)c2n1)NC(=O)c1ccc(SC(F)(F)F)cc1 (centres unmarked) [Compound II]
[1]
  MIC90: 1.2 ng/mL (≈ 2.22 nM)

## CC(C#N)(Cn1cc2c(C(F)F)cc(Cl)c(Cl)c2n1)NC(=O)c1ccc(SC(F)(F)F)cc1 (centres unmarked) [Compound I]
[1]
  MIC90: 0.3 ng/mL (≈ 0.573 nM)
Ostertagia ostertagi
  % Reduction in Worm Counts, O. ostertagi Females: 96.4%
  % Reduction in Worm Counts, O. ostertagi Males: 96.3%
Haemonchus placei
  % Reduction in Worm Counts, H. placei Adults: 100.0%
Cooperia punctata
  % Reduction in Worm Counts, C. punctata Males: 100.0%
Cooperia oncophora
  efficacy against C. oncophora males in words: significantly more effective
  % Reduction in Worm Counts, C. oncophora Males: 83.0%
Cooperia spp.; Compound I compared with eprinomectin (Group 3) or ivermectin (Group 4)
  efficacy against Cooperia spp. female worms in words: significantly more effective
Cooperia spp.
  % Reduction in Worm Counts, Cooperia spp. Females: 90.9%

## CC(C#N)(Cn1cc2ccc(Cl)cc2n1)NC(=O)c1ccc(SC(F)(F)F)cc1 (centres unmarked) [‘999 App, 2.038]
[1]
  MIC90: 2.4 ng/mL (≈ 5.47 nM)

## CC(C#N)(Cn1cc2c(Cl)cc(Cl)cc2n1)NC(=O)c1ccc(SC(F)(F)F)cc1 (centres unmarked) [‘999 App, 2.041]
[1]
  MIC90: 2.4 ng/mL (≈ 5.07 nM)

## CC(C#N)(Cn1cc2c(Cl)cc(Cl)c(Cl)c2n1)NC(=O)c1ccc(SC(F)(F)F)cc1 (centres unmarked) [‘999 App, 2.049]
[1]
  MIC90: 1.2 ng/mL (≈ 2.36 nM)

## eprinomectin
Ostertagia ostertagi
  % Reduction in Worm Counts, O. ostertagi Females: 99.4%
  % Reduction in Worm Counts, O. ostertagi Males: 95.7%
Haemonchus placei
  % Reduction in Worm Counts, H. placei Adults: 98.9%
Cooperia punctata
  % Reduction in Worm Counts, C. punctata Males: 94.7%
Cooperia oncophora
  % Reduction in Worm Counts, C. oncophora Males: 0%
Cooperia spp.
  % Reduction in Worm Counts, Cooperia spp. Females: 55.8%

## ivermectin
Ostertagia ostertagi
  % Reduction in Worm Counts, O. ostertagi Females: 81%
  % Reduction in Worm Counts, O. ostertagi Males: 75%
Haemonchus placei
  % Reduction in Worm Counts, H. placei Adults: 82%
Cooperia punctata
  % Reduction in Worm Counts, C. punctata Males: 91%
Cooperia oncophora
  efficacy against C. oncophora males in words: not effective
  % Reduction in Worm Counts, C. oncophora Males: 0%
Cooperia spp.
  % Reduction in Worm Counts, Cooperia spp. Females: 46%
